Data taken from patent US4496591A, “Insecticidal bis-carbamate sulfides” (priority 1981, dated 1985).

What was measured:
Type in all cases: in vivo
[1] = test system: house flies (Musca domestica, L.); assay: Fly bait test; design: key: A: excellent control; B: partial control; C: no control at 500 ppm; settings: 500 parts per million, sugar bait, twenty-four hours
Method: (§1) Suspensions of the test compounds were prepared by dissolving one gram of compound in 50 milliliters of acetone in which had been dissolved 0.1 gram (10 percent of the weight of compound) of an alkylphenoxy polyethoxyethanol surfactant, as an emulsifying or dispersing agent. The resulting solution was mixed into 150 milliliters of water to give roughly 200 milliliters of a suspension containing the compound in finely divided form. The thus-prepared stock suspension contained 0.5 percent by weight of compound. The concentrations in parts per million by weight employed in the tests described hereinbelow were obtained by appropriate dilutions of the stock suspension with water. The test procedures were as follows:
Four to six day old adult house flies (Musca domestica, L.), reared according to the specifications of the Chemical Specialties Manufacturing Association (Blue Book, McNair-Dorland Co., N.Y. 1954; pages 243-244, 261) under controlled conditions of 80±5° F. and 50±5 percent relative humidity, were the test insects. The flies were immobilized by anesthetizing them with carbon dioxide. Twenty-five immobilized individuals, males and females, were transferred to a cage consisting of a standard food strainer about five inches in diameter which was inverted over a wrapping-paper-covered surface. The test compounds were formulated by diluting the stock suspension with a 10 percent (by weight) sugar solution to give a suspension containing 500 parts of test compound per million parts of final formulation, by weight. Ten milliliters of the test formulation were added to a souffle cup containing a one-inch square of an absorbent cotton pad. This bait cup was introduced and centered on the blotting paper under the food strainer prior to admitting the anesthetized flies. The caged flies were allowed to feed on the bait for twenty-four hours, at a temperature of 80±5° F. and at a relative humidity of 50±5 percent.
(§2) In these tests the pesticidal activity of the compounds at the indicated dosage rate against aphid, Southern Armyworm, Bean Beetle and housefly was rated as follows: […]

[2] = test system: egg of the Southern armyworm (Spodoptera eridania (Cram.)); assay: Southern armyworm ovicide test; design: key: A: excellent control; B: partial control; C: no control at 500 ppm; settings: 500 parts per million, egg dip, four days
Method: as §1
The test organism was the egg of the Southern armyworm (Spodoptera eridania (Cram.)) as obtained from adults reared on Tendergreen bean plants at a temperature of 80±5° F. and a relative humidity of 50±5 percent. The eggs were laid on freezer paper (Marlon 717, Copco paper) and then cut into small sections containing one or two egg masses.
The test compounds were formulated by diluting the stock suspension with water to give a suspension containing 500 parts of test compound per million parts of final formulation. The egg masses were then dipped until they were thoroughly wet (5-10 seconds). They were then placed on a paper towel face up and were allowed to dry for 15-30 minutes. The dry eggs were placed in a 15×60 mm petri dish containing a cotton dental wick saturated with a 5 percent sodium chloride solution to maintain a high level of humidity. The closed dishes were labeled and held at a temperature of 80±5° F. for four days. Larvae that emerged from the egg, even if dead at the time of observation, were recorded as hatched.
as §2

[3] = test system: southern armyworm (Spodoptera eridania, (Cram.)) larvae; assay: Southern armyworm leaf spray bait test; design: key: A: excellent control; B: partial control; C: no control at 500 ppm; settings: 500 parts per million, three days
Method: as §1
Larvae of the southern armyworm (Spodoptera eridania, (Cram.)), reared on Tendergreen bean plants at a temperature of 80±5° F. and a reative humidity of 50±5 percent, constituted the test insects.
The test compounds were formulated by diluting the stock suspension with water to give a suspension containing 500 parts of test compound per million parts of final formulation. Potted Tendergreen bean plants of standard height and age were placed on a revolving turntable and sprayed with 100-110 milliliters of test compound formulation by use of a DeVilbiss spray gun set at 40 psig air pressure. This application, which lasted 25 seconds, was sufficient to wet the plants to run-off. As a control, 100-110 milliliters of a water-acetone-emulsifier solution containing no test compound were also sprayed on infested plants. When dry, the paired leaves were separated and each one was placed in a 9 centimeter Petri dish lines with moistened filter paper. Five randomly selected larvae were introduced into each dish and the dishes were closed. The closed dishes were labeled and held at 80°-85° F. for three days. Although the larvae could easily consume the whole leaf within twenty-four hours, no more food was added. Larvae which were unable to move the length of the body, even upon stimulation by prodding, were considered dead.
as §2

[4] = test system: bean aphid (Aphis fabae Scop.); assay: Bean aphid foliage spray test; design: key: A: excellent control; B: partial control; C: no control at 500 ppm; settings: 500 parts per million, 24 hour
Method: as §1
Adults and nymphal stages of the bean aphid (Aphis fabae Scop.) reared on potted dwarf nasturtium plants at 68°-70° F. and 50±5 percent relative humidity, constituted the test insects. For testing purposes, the number of aphids per pot were standardized to 100-150 by trimming plants containing excess aphids.
The test compounds were formulated by diluting the stock suspension with water to give a suspension containing 500 parts of test compound per million parts of final formulation.
The potted plants (one pot per compound tested) infested with 100-150 aphids, were placed on a revolving turntable and sprayed with 100-110 milliliters of test compound formulation by use of a DeVilbiss spray gun set at 40 psig. air pressure. This application, which lasted 25 seconds, was sufficient to wet the plants to run-off. As a control, 100-110 milliliters of a water-acetone-emulsifier solution containing no test compound was also sprayed on infested plants. After spraying, the pots were placed on their sides on a sheet of white standard mimeograph paper which had been previously ruled to facilitate counting. Temperature and humidity in the test room during the 24 hour holding period were 68°-70° F. and 50±5 percent, respectively. Aphids which fell onto the paper and were unable to remain standing after being uprighted were considered dead. Aphids remaining on the plants were observed closely for movement and those which were unable to move the length of the body upon stimulation by prodding were considered dead.
as §2

[5] = test system: Mexican bean beetle (Epilachna varivestis, Muls.) larvae; assay: Mexican bean beetle leaf spray test; design: key: A: excellent control; B: partial control; C: no control at 500 ppm; settings: 500 parts per million, fourth instar larvae, three days
Method: as §1
Fourth instar larvae of the Mexican bean beetle (Epilachna varivestis, Muls.), reared on Tendergreen bean plants at a temperature of 80±5° F. and 50±5° F. percent relative humdity, were the test insects.
The test compounds were formulated by diluting the stock suspension with water to give a suspension containing 500 parts of test compound per million parts of final formulation. Tendergreen bean plants of standard height and age were placed on a revolving turntable and sprayed with 100-110 milliliters of test compound formulation by use of a DeVilbiss spray gun set at 40 psig air pressure. This application, which lasted 25 seconds, was sufficient to wet the plants to run-off. As a control, 100-110 milliliters of a water-acetone-emulsifier solution containing no test compound was also sprayed on infested plants. When dry, the paired leaves were separated and each was placed in a 9 centimeter Petri dish lined with moistened filter paper. Five randomly selected larvae were introduced into each dish, and the dishes were closed. The closed dishes were labeled and held at a temperature of 80±5° F., for three days. Although the larvae could easily consume the leaf within 24 to 48 hours, no more food was added. Larvae which were unable to move the length of the body, even upon stimulation, were considered dead.
as §2

[6] = test system: root-knot nematode, Meloidogyne incognita var. acrita; assay: Nematocide test; design: key: 1: severe galling, equal to untreated plants; 2: moderate galling; 3: light galling; 4: very light galling; 5: no galling, perfect control; settings: 3.33 m.g. per jar, cucumber, approximately 3 weeks
Method: The test organism used was the infective migratory larvae of the root-knot nematode, Meloidogyne incognita var. acrita, reared in the greenhouse on roots of cucumber plants. Infected plants were removed from the culture, and the roots were chopped very finely. A small amount of this inoculum was added to a pint jar containing approximately 180 cc. of soil. The jars were capped and incubated for one week at room temperature. During this period eggs of the nematode were hatched, and the larval forms migrated into the soil.
Ten ml. of the test formulation were added to each of the two jars for each dosage tested. Following the addition of chemical, the jars were capped, and the contents thoroughly mixed on a ball mill for […].
The test compounds were formulated by a standard procedure of solution in acetone addition of an emulsifier, and dilution with water. Primary screening tests were conducted at 3.33 m.g. of the test compound per jar.
The jars were left capped at room temperature for a period of 48 hours, and the contents then transferred to 3 inch pots. Subsequently, the pots were seeded to cucumber as an indicator crop and placed in the greenhouse where they were cared for in the normal fashion for approximately 3 weeks.
The cucumber plants were then taken from the pots, the soil removed from the roots, and the amount of galling visually rated.
In the test for activity against nematodes activity was rated as follows: […]

[7] = test system: housefly adults (Musca domestica); assay: Comparative residual effect in soil; settings: for Residual effect in soil (mortality), 0 weeks / Residual Activity (weeks): soil concentration four times LD50, housefly; for Residual effect in soil (mortality), 0 weeks: 24 hours; for Residual effect in soil (mortality), 1 week / Residual effect in soil (mortality), 4 weeks: soil concentration four times LD50, 25° C., 90% relative humidity; for Residual effect in soil (mortality), 1 week: 10080 min; for Residual effect in soil (mortality), 4 weeks: 40320 min
Method: Selected species of the new compounds were evaluated for their residual pesticidal activity in soil. […] The residual activity test were conducted using five to seven-day old housefly adults (Musca domestica).
The soil mixture used was one part agricultural soil and three parts sand. The agricultural soil was stored in plastic bags in a freezer, immediately after removal from the field. This was done to reduce microbial multiplication. Two weeks prior to use, the soil was thawed and held at room temperature to allow microbial population to equilibrate. The sand and soil were sifted to remove clumps and debris and were then blended by rolling on a roller mill in a closed metal container. The moisture level was adjusted to 15% by weight.
The concentration in the soil of the compound to be tested was four times the amount (in parts per million) necessary to achieve a mortality rate of 50% on contact with the soil (LD50). This is in accordance with the procedure developed by C. R. Harris of the Research Institute, Canadian Department of Agriculture, London, Ontario. Such procedure is disclosed in "Biological Activity of Chloropyrifos, Chlorpyrifor-Methyl, Phorate, and Counter® in Soil", The Canadian Entomologist, Vol. 109, pp. 1115-1120 (August 1977); and in "Laboratory Studies on the Persistance of Biological Activity of Some Insecticides in Soils", Journal of Economic Entomology, Vol. 62, No. 6, pp. 1437-1441 (December 1969).
An appropriate amount of compound was dissolved in an acetone--Triton solution and was diluted with water. Five mililiters of the formulated chemical was applied to four ounces of soil mixture and rolled in a 16-ounce glass jar to blend the compound evenly with the soil. Ten mililiters of granular cane sugar was then mixed thoroughly with the treated soil in an eight-ounce plastic container.
Twenty-five housefly adults, anesthetized with CO2, were then transferred to the soil and were covered with a perforated plastic lid. The test containers were held for 24 hours in a constant environment at a temperature of 80±5° F. and a relative humidity of […]. Mortality was based on the ability of the fly to move in a normal manner without spinning.
The above process was repeated on treated soil which had been incubated at 25° C. and 90% relative humidity for 1, 4, 6 and 8 weeks after initial exposure. This was necessary because the soil is incubated without sugar, sugar being added at the time of reinfestation. For this reason, appropriate volumes of soil had to be treated at the start of the soil test to last for the expected residual period.

Compound | Housefly, pesticidal activity rating [1] | Southern Armyworm (egg), pesticidal activity rating [2] | Southern Armyworm, pesticidal activity rating [3] | Aphids, pesticidal activity rating [4] | Mexican Bean Beetle, pesticidal activity rating [5] | Root-Knot Nematode, galling rating [6] | Residual effect in soil (mortality), 0 weeks [7] | Residual effect in soil (mortality), 1 week [7] | Residual effect in soil (mortality), 4 weeks [7] | Residual Activity (weeks) [7]
CSC(C)=NOC(=O)N(C)SN(C)C(=O)Oc1ccc(C(C)=O)cc1 [Compound 2] | A | A | A | A | A | 5 |  |  |  | 
CSC(C)=NOC(=O)N(C)SN(C)C(=O)Oc1ccccc1C=O [Compound 8] | A | B | A | A | A | 4 |  |  |  | 
CSC(C)=NOC(=O)N(C)SN(C)C(=O)Oc1ccc(C(=O)c2ccccc2)cc1 [Compound 6] | A | A | A | A | A | 4 |  |  |  | 
CSC(C)=NOC(=O)N(C)SN(C)C(=O)Oc1ccc(C(=O)O)cc1 [Compound 4, S-Methyl-N-[[[N'-[[N"-[(4-hydroxycarbonylphenoxy)carbonyl]-N"-methylaminosulfenyl]]-N'-methylcarbamoyloxy]]]thioacetimidate] | A |  | A | B | A |  |  |  |  | 
CSC(C)=NOC(=O)N(C)SN(C)C(=O)Oc1cc(C)c(C)c(C)c1 [B] |  |  |  |  |  |  | 100 | 100 | 0 | less than 4 weeks
CNC(=O)ON=C(C)SC [Methomyl, methyl N[[(methylamino)carbonyl]oxy]ethanimidothioate] |  |  |  |  |  |  | 100 | 100 | 15 | less than 4 weeks
CSC(C)=NOC(=O)N(C)SN(C)C(=O)Oc1cccc(C)c1 [A] |  |  |  |  |  |  | 100 | 100 | 23 | less than 4 weeks
